Laboratory results taken from the OPERA property sets (Mansouri et al. 2018).

Details: not given

| Structure (SMILES) | log10 vapour pressure (mmHg) | melting point | boiling point | log10 Henry constant (atm·m³/mol) | ready biodegradability | log10 Koa | log10 Koc (L/kg) |
| --- | --- | --- | --- | --- | --- | --- | --- |
| Clc1cc(Cl)cc(Oc2ccccc2)c1 | -3 | – | – | – | – | – | – |
| CNC.O=C(O)COc1ccc(Cl)cc1Cl | -9 | 86 °C | – | – | – | – | – |
| CCCC=CCO | – | – | 157 °C | – | – | – | – |
| CCN(CC)CCOC(=O)C(O)(c1ccccc1)c1ccccc1.Cl | – | 178 °C | – | – | – | – | – |
| Cc1cccc2c1CCCC2 | – | -23 °C | 234 °C | – | – | – | – |
| CCCCCCCCCc1ccccc1 | -2.24 | -24 °C | 280 °C | – | – | – | – |
| FC(F)(F)c1ccc2c(c1)Nc1ccccc1S2 | – | 189 °C | – | – | – | – | – |
| N#CCCCOc1ccccc1 | – | 45.5 °C | 288 °C | – | – | – | – |
| O=C(Cl)C=Cc1ccccc1 | – | 36 °C | 257 °C | – | – | – | – |
| CCC(C)CCC(C)(O)CC (configuration not stated) | – | -67.5 °C | 202 °C | – | – | – | – |
| FC(F)(F)C1(F)OC1(F)F (configuration not stated) | – | – | -27.4 °C | – | – | – | – |
| CCC(=O)O | 0.548 | -20.7 °C | 141 °C | -6.35 | readily biodegradable | – | – |
| CCc1cc(C)cc(O)c1 | -2.06 | 51.6 °C | 236 °C | – | – | – | – |
| COc1cc(C(=O)c2ccc(Cl)cc2)cc(OC)c1OCCN1CCOCC1 | – | 91.5 °C | – | – | – | – | – |
| Cc1ccc(N)c(N)c1 | -3.2 | 89.5 °C | 265 °C | – | – | – | – |
| CCCCCCCCCCCCCCCCCCC1CCCCC1 | – | 41.6 °C | 409 °C | – | – | – | – |
| C=Cn1c2ccccc2c2ccccc21 | – | 65 °C | – | – | – | – | – |
| CCCC(C(N)=O)n1nc2ccccc2n1 (configuration not stated) | – | 126 °C | – | – | – | – | – |
| C[C@@H]1CC[C@@H](C)S1 | – | -89 °C | 142 °C | – | – | – | – |
| Clc1ccccc1-c1ccccc1Cl | -2.56 | 61.5 °C | – | -3.64 | not readily biodegradable | 7.18 | 3.92 |
| CC(C)(O)C#N | -0.467 | -19 °C | 171 °C | – | readily biodegradable | – | – |
| O=[N+]([O-])c1ccc(Cl)cc1O | – | 41 °C | – | – | – | – | – |
| Oc1ccccc1-c1ccccc1 | -2.7 | 59 °C | 286 °C | – | readily biodegradable | – | – |
| CCC(C)(C)C(=O)O[C@H]1C[C@@H](C)C=C2C=C[C@H](C)[C@H](CC[C@@H]3C[C@@H](O)CC(=O)O3)[C@H]21 | – | 136 °C | – | – | – | – | – |

| Structure (SMILES) | log10 vapour pressure (mmHg) | melting point | boiling point | log10 Henry constant (atm·m³/mol) | ready biodegradability | log10 Koa | log10 Koc (L/kg) |
| --- | --- | --- | --- | --- | --- | --- | --- |
| O=C(/C=C/c1ccccc1)c1ccccc1 | – | 57.5 °C | 346 °C | – | – | – | – |
| CCC(=O)OC(C)C | 1.35 | – | 110 °C | – | – | – | – |
| O=CC1CCCCC1 | – | – | 159 °C | – | – | – | – |
| O=C(O)c1ccc(F)cc1 | – | 185 °C | – | – | – | – | – |
| CNC1=Nc2ccc(Cl)cc2C(c2ccccc2)=[N+]([O-])C1 | – | 236 °C | – | – | – | – | – |
| C#CCCCCCCCCC | – | -25 °C | 196 °C | – | – | – | – |
| c1ccc2c(c1)CCN2 | – | – | 229 °C | – | – | – | – |
| CC(C)(C)c1ccc(CCOc2ncnc3ccccc23)cc1 | -7.59 | 78.5 °C | – | – | – | – | – |
| CCOP(=S)(OCC)Oc1ccc2c3c(c(=O)oc2c1)CCCC3 | – | 88.2 °C | – | – | – | – | – |
| CC(=O)CCC(C)=O | – | -5.5 °C | 194 °C | – | – | – | – |
| CC1(CCl)CO1 (configuration not stated) | – | – | 122 °C | – | not readily biodegradable | – | – |
| CCCC(C)C(=O)Nc1ccc(C)c(Cl)c1 (configuration not stated) | – | 85 °C | – | – | – | – | 2.76 |
| CC(C)C(NC(N)=O)NC(N)=O | – | – | – | – | readily biodegradable | – | – |
| CC(Br)CCBr (configuration not stated) | – | – | 174 °C | – | – | – | – |
| CC(=O)C(C)CO (configuration not stated) | -0.646 | – | – | – | – | – | – |
| COc1cc(CCn2cccc2C(=O)O)cc(OC)c1OC | – | 132 °C | – | – | – | – | – |
| CC=CCCl | 1.84 | – | 80.7 °C | – | – | – | – |
| Cc1cc2nc3c(=O)[nH]c(=O)nc-3n(C[C@H](O)[C@H](O)[C@H](O)CO)c2cc1C | – | – | – | – | not readily biodegradable | – | – |
| CCCCC(=O)Cl | – | -110 °C | 109 °C | – | – | – | – |
| CCNCCN(C)C | – | – | 134 °C | – | – | – | – |
| O=[N+]([O-])c1cc(Cl)ccc1O | – | 88.5 °C | – | – | not readily biodegradable | – | – |
| CCCCCCCC[C@H](O)[C@H](O)CCCCCCCC(=O)O | – | 90 °C | – | – | – | – | – |
| Clc1ccc(Oc2ccc(Cl)c(Cl)c2)cc1 | -3.98 | – | – | – | – | – | – |

Same assay, conditions: fish

| Structure (SMILES) | log10 BCF |
| --- | --- |
| Brc1cc(Br)c(Br)c(Oc2c(Br)c(Br)c(Br)c(Br)c2Br)c1Br | 5.57 |
| C[n+]1ccc(-c2cc[n+](C)cc2)cc1 | 0.28 |
